Source: patent US12377104B1, “Methods for treating a fatty liver disease” (Madrigal Pharmaceuticals, Inc., priority 2024, dated 2025)

Columns and labels:
clinical = settings: human, in vivo
Source text: (§1) Following once daily doses, steady state was typically reached within 3 to 6 days of dosing.

NASH patients = experiment: MAESTRO-NAFLD-1 100 mg open label non-cirrhotic NASH arm, 52 weeks; format: in vivo, human
Procedure: The 169 patient, 100 mg open label (OL) arm completed the 52 week study in July 2021.
Eligibility required at least 3 metabolic risk factors (Metabolic syndrome), fibroscan kilopascals (kPa) consistent with ≥F1 fibrosis stage, and MRI-PDFF≥8%. The primary and key secondary endpoints of MAESTRO-NAFLD-1 including safety, relative percent reduction of MRI-PDFF (week 16), LDL cholesterol (LDL-C) (week 24), apolipoprotein B and triglycerides, fibroscan and 52 week endpoints were analyzed in the OL arm.
Mean age was 55.7 (11.5 Standard Deviation (SD)), female 69%, BMI 35.8 (6.0), diabetes 43%, hypertension 62%, dyslipidemia >70%, atherosclerotic cardiovascular disease (ASCVD) score 11.5%; fibroscan (kPa 7.7 (3.6)), and MRI-PDFF 17% (7%). […] Liver volume (LV) was elevated at baseline (2202 cm3 (535)) by […] relative to normal controls and −15% after correction for BMI (Euro J of Radiol 106, 2018, 32-37). […] LV reduction was 2-3 fold greater than predicted by % reduction in MRI-PDFF, a measure of liver fat content (Clin Gastroenterol Hepatol. 2015 13: 561-568); LY-corrected mean MRI-PDFF reduction was −63% (2.4%). […] At week 52, magnetic resonance elastography (MRE) (−0.34, p=0.03); fibroscan controlled attenuation parameter (CAP) (−39 (4.6)) and vibration-controlled transient elastography (VCTE) (−1.87; −20%) (p<0.0001) were reduced relative to baseline.

[1] = MAESTRO-NASH: bone mineral density T score and fractures; set-up: species or system human; settings: in vivo
[2] = human, in vivo
Source text: as §1

[3] = MAESTRO-NASH: thyroid hormones at week 52; format: in vivo, human

SMILES: CC(C)c1cc(Oc2c(Cl)cc(-n3nc(C#N)c(=O)[nH]c3=O)cc2Cl)n[nH]c1=O [Resmetirom, 2-(3,5-dichloro-4-((5-isopropyl-6-oxo-1,6-dihydropyridazin-3-yl)oxy)phenyl)-3,5-dioxo-2,3,4,5-tetrahydro-1,2,4-triazine-6-carbonitrile]
- Tmax (clinical): ~4 h
- half-life (clinical): 4.5 h
- AUC (clinical; 80 mg): 5850 ng·h/mL
- Cmax (clinical; 80 mg): 778 ng/mL
- AUC (clinical; 100 mg): 7780 ng·h/mL
- Cmax (clinical; 100 mg): 971 ng/mL
- ALT decrease from baseline (NASH patients): −20 IU
- AST decrease from baseline (NASH patients): −11 IU
- Blood pressure (systolic, diastolic) change (NASH patients): −2 mmHg
- GGT decrease from baseline (NASH patients): −25 IU
- LDL-C change (NASH patients): −22%
- LV reduction greater than predicted by % reduction in MRI-PDFF (NASH patients): 2-3 fold
- LV-corrected mean MRI-PDFF reduction (NASH patients): −63%
- apolipoprotein-B change (NASH patients): −24%
- triglycerides change (NASH patients): −24%
- bone mineral density (DEXA) (NASH patients; 52 weeks): unchanged
- safety (NASH patients; 52 weeks): No safety flags
- LV change (NASH patients; week 16): −21%
- LV change (NASH patients; week 52): −23%
- reduction of MRI-PDFF (NASH patients; week 52): −53%
- fractures and bone mineral density T scores [1]: no increases in fractures or substantial changes in bone mineral density T scores
- exposure increase following once daily dosing [2]: 1.5- to 3 fold
- exposure vs dose [2]: greater than dose proportional
- steady state exposure vs dose [2]: dose proportional
- time to steady state [2]: 3 to 6 days
- FT3 (not on thyroxine), LS mean CFB ([3]; 80 mg, Week 52): -0.01 ng/L
- FT3 (not on thyroxine), LS mean difference from PBO (CFB) ([3]; 80 mg, Week 52): 0.01 ng/L
- FT3 (thyroxine-treated), LS mean CFB ([3]; 80 mg, Week 52): 0.04 ng/L
- FT3 (thyroxine-treated), LS mean difference from PBO (CFB) ([3]; 80 mg, Week 52): 0.05 ng/L
- FT3, LS mean CFB ([3]; 80 mg, Week 52): -0.01 ng/L
- FT3, LS mean difference from PBO (CFB) ([3]; 80 mg, Week 52): 0.02 ng/L
- FT3/rT3 (not on thyroxine), LS mean CFB ([3]; 80 mg, Week 52): 0.06
- FT3/rT3 (not on thyroxine), LS mean difference from PBO (CFB) ([3]; 80 mg, Week 52): 0.06
- FT3/rT3 (thyroxine-treated), LS mean CFB ([3]; 80 mg, Week 52): 0.05
- FT3/rT3 (thyroxine-treated), LS mean difference from PBO (CFB) ([3]; 80 mg, Week 52): 0.06
- FT3/rT3, LS mean difference from PBO (CFB) ([3]; 80 mg, Week 52): 0.06
- FT4 (not on thyroxine), LS mean % CFB ([3]; 80 mg, Week 52): −13.8%
- FT4 (not on thyroxine), LS mean CFB ([3]; 80 mg, Week 52): 0.16 ng/dL
- FT4 (not on thyroxine), LS mean difference from PBO (% CFB) ([3]; 80 mg, Week 52): −16.3%
- FT4 (not on thyroxine), LS mean difference from PBO (CFB) ([3]; 80 mg, Week 52): -0.18 ng/dL
- FT4 (thyroxine-treated), LS mean % CFB ([3]; 80 mg, Week 52): −14.0%
- FT4 (thyroxine-treated), LS mean CFB ([3]; 80 mg, Week 52): 0.18 ng/dL
- FT4 (thyroxine-treated), LS mean difference from PBO (% CFB) ([3]; 80 mg, Week 52): −17.9%
- FT4 (thyroxine-treated), LS mean difference from PBO (CFB) ([3]; 80 mg, Week 52): -0.21 ng/dL
- FT4, LS mean % CFB ([3]; 80 mg, Week 52): 13.9%
- FT4, LS mean CFB ([3]; 80 mg, Week 52): -0.17 ng/dL
- FT4, LS mean difference from PBO (% CFB) ([3]; 80 mg, Week 52): −16.6%
- FT4, LS mean difference from PBO (CFB) ([3]; 80 mg, Week 52): -0.19 ng/dL
- TBG (not on thyroxine), LS mean CFB ([3]; 80 mg, Week 52): 0.19 mg/L
- TBG (not on thyroxine), LS mean difference from PBO (CFB) ([3]; 80 mg, Week 52): -1.8 mg/L
- TBG (thyroxine-treated), LS mean CFB ([3]; 80 mg, Week 52): 1.1 mg/L
- TBG (thyroxine-treated), LS mean difference from PBO (CFB) ([3]; 80 mg, Week 52): -2.6 mg/L
- TBG, LS mean CFB ([3]; 80 mg, Week 52): -0.32 mg/L
- TBG, LS mean difference from PBO (CFB) ([3]; 80 mg, Week 52): -1.9 mg/L
- TSH (not on thyroxine), LS mean CFB ([3]; 80 mg, Week 52): −0.23 mIU/L
- TSH (not on thyroxine), LS mean difference from PBO (CFB) ([3]; 80 mg, Week 52): −0.15 mIU/L
- TSH (thyroxine-treated), LS mean CFB ([3]; 80 mg, Week 52): −0.63 mIU/L
- TSH (thyroxine-treated), LS mean difference from PBO (CFB) ([3]; 80 mg, Week 52): −0.41 mIU/L
- TSH, LS mean CFB ([3]; 80 mg, Week 52): −0.28 mIU/L
- TSH, LS mean difference from PBO (CFB) ([3]; 80 mg, Week 52): −0.18 mIU/L
- rT3 (not on thyroxine), LS mean CFB ([3]; 80 mg, Week 52): -4.5 ng/dL
- rT3 (not on thyroxine), LS mean difference from PBO (CFB) ([3]; 80 mg, Week 52): -4.5 ng/dL
- rT3 (thyroxine-treated), LS mean CFB ([3]; 80 mg, Week 52): -5.1 ng/dL
- rT3 (thyroxine-treated), LS mean difference from PBO (CFB) ([3]; 80 mg, Week 52): 5.1 ng/dL
- rT3, LS mean CFB ([3]; 80 mg, Week 52): -4.6 ng/dL
- rT3, LS mean difference from PBO (CFB) ([3]; 80 mg, Week 52): -4.73 ng/dL
- rT3, LS mean CFB ([3]; 80 mg, week 52): 4.6 ng/dL
- rT3, LS mean CFB difference from PBO ([3]; 80 mg, week 52): -4.7 ng/dL
- FT3 (not on thyroxine), LS mean CFB ([3]; 100 mg, Week 52): -0.08 ng/L
- FT3 (not on thyroxine), LS mean difference from PBO (CFB) ([3]; 100 mg, Week 52): -0.06 ng/L
- FT3 (thyroxine-treated), LS mean CFB ([3]; 100 mg, Week 52): -0.03 ng/L
- FT3 (thyroxine-treated), LS mean difference from PBO (CFB) ([3]; 100 mg, Week 52): 0.01 ng/L
- FT3, LS mean CFB ([3]; 100 mg, Week 52): 0.08 ng/L
- FT3, LS mean difference from PBO (CFB) ([3]; 100 mg, Week 52): -0.05 ng/L
- FT3/rT3 (not on thyroxine), LS mean CFB ([3]; 100 mg, Week 52): 0.06
- FT3/rT3 (not on thyroxine), LS mean difference from PBO (CFB) ([3]; 100 mg, Week 52): 0.07
- FT3/rT3 (thyroxine-treated), LS mean CFB ([3]; 100 mg, Week 52): 0.06
- FT3/rT3 (thyroxine-treated), LS mean difference from PBO (CFB) ([3]; 100 mg, Week 52): 0.06
- FT3/rT3, LS mean difference from PBO (CFB) ([3]; 100 mg, Week 52): 0.07
- FT4 (not on thyroxine), LS mean % CFB ([3]; 100 mg, Week 52): −17.6%
- FT4 (not on thyroxine), LS mean CFB ([3]; 100 mg, Week 52): -0.21 ng/dL
- FT4 (not on thyroxine), LS mean difference from PBO (% CFB) ([3]; 100 mg, Week 52): 20.0%
- FT4 (not on thyroxine), LS mean difference from PBO (CFB) ([3]; 100 mg, Week 52): -0.23 ng/dL
- FT4 (thyroxine-treated), LS mean % CFB ([3]; 100 mg, Week 52): 20.6%
- FT4 (thyroxine-treated), LS mean CFB ([3]; 100 mg, Week 52): -0.26 ng/dL
- FT4 (thyroxine-treated), LS mean difference from PBO (% CFB) ([3]; 100 mg, Week 52): −24.4%
- FT4 (thyroxine-treated), LS mean difference from PBO (CFB) ([3]; 100 mg, Week 52): 0.29 ng/dL
- FT4, LS mean % CFB ([3]; 100 mg, Week 52): −18.1%
- FT4, LS mean CFB ([3]; 100 mg, Week 52): -0.22 ng/dL
- FT4, LS mean difference from PBO (% CFB) ([3]; 100 mg, Week 52): 20.7%
- FT4, LS mean difference from PBO (CFB) ([3]; 100 mg, Week 52): -0.24 ng/dL
- TBG (not on thyroxine), LS mean CFB ([3]; 100 mg, Week 52): 0.21 mg/L
- TBG (not on thyroxine), LS mean difference from PBO (CFB) ([3]; 100 mg, Week 52): 1.8 mg/L
- TBG (thyroxine-treated), LS mean CFB ([3]; 100 mg, Week 52): 3.1 mg/L
- TBG (thyroxine-treated), LS mean difference from PBO (CFB) ([3]; 100 mg, Week 52): 4.6 mg/L
- TBG, LS mean CFB ([3]; 100 mg, Week 52): -0.60 mg/L
- TBG, LS mean difference from PBO (CFB) ([3]; 100 mg, Week 52): -2.2 mg/L
- TSH (not on thyroxine), LS mean CFB ([3]; 100 mg, Week 52): −0.20 mIU/L
- TSH (not on thyroxine), LS mean difference from PBO (CFB) ([3]; 100 mg, Week 52): −0.12 mIU/L
- TSH (thyroxine-treated), LS mean CFB ([3]; 100 mg, Week 52): −0.13 mIU/L
- TSH (thyroxine-treated), LS mean difference from PBO (CFB) ([3]; 100 mg, Week 52): 0.09 mIU/L
- TSH, LS mean CFB ([3]; 100 mg, Week 52): −0.20 mIU/L
- TSH, LS mean difference from PBO (CFB) ([3]; 100 mg, Week 52): 0.10 mIU/L
- rT3 (not on thyroxine), LS mean CFB ([3]; 100 mg, Week 52): 4.9 ng/dL
- rT3 (not on thyroxine), LS mean difference from PBO (CFB) ([3]; 100 mg, Week 52): -5.1 ng/dL
- rT3 (thyroxine-treated), LS mean CFB ([3]; 100 mg, Week 52): -6.3 ng/dL
- rT3 (thyroxine-treated), LS mean difference from PBO (CFB) ([3]; 100 mg, Week 52): -6.3 ng/dL
- rT3, LS mean CFB ([3]; 100 mg, Week 52): 5.1 ng/dL
- rT3, LS mean difference from PBO (CFB) ([3]; 100 mg, Week 52): -5.2 ng/dL
- rT3, LS mean CFB ([3]; 100 mg, week 52): 5.1 ng/dL
- rT3, LS mean CFB difference from PBO ([3]; 100 mg, week 52): 5.2 ng/dL
- effect on levels of thyrotropin or free triiodothyronine (FT3) ([3]; in vivo): no effect
- reduction of prohormone free T4 (FT4) levels ([3]; independent of thyroxine-replacement status): 16 to 19%
